# Test results taken from PubChem BioAssay (NCI).
#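 Interpolation was linear, between the two tested concentrations surrounding the appropriate level; five concentrations were tested over 48 hours in 96-well plates. GI50: concentration for 50% inhibition of growth. TGI is the concentration that stops growth completely.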
# Tests used:
# Experiment in all cases: NCI tumour cell line growth inhibition, 48 h
# SN12C renal = test system: SN12C renal
# NCI/ADR-RES ovarian = test system: NCI/ADR-RES ovarian
# SF-268 CNS = test system: SF-268 CNS
# COLO 205 colon = test system: COLO 205 colon
# U251 CNS = test system: U251 CNS
# RPMI-8226 leukemia = test system: RPMI-8226 leukemia
# DU-145 prostate = test system: DU-145 prostate
# CAKI-1 renal = test system: CAKI-1 renal
# A498 renal = test system: A498 renal
# T-47D breast = test system: T-47D breast
# UACC-257 melanoma = test system: UACC-257 melanoma
# OVCAR-8 ovarian = test system: OVCAR-8 ovarian
# NCI-H460 lung = test system: NCI-H460 lung
# BT-549 breast = test system: BT-549 breast
# HCC-2998 colon = test system: HCC-2998 colon
# HOP-62 NSCLC = test system: HOP-62 NSCLC
# UACC-62 melanoma = test system: UACC-62 melanoma
# IGROV1 ovarian = test system: IGROV1 ovarian
# OVCAR-3 ovarian = test system: OVCAR-3 ovarian
# SNB-19 CNS = test system: SNB-19 CNS
# MCF7 breast = test system: MCF7 breast
# PC-3 prostate = test system: PC-3 prostate
# SF-295 CNS = test system: SF-295 CNS
# LOX IMVI melanoma = test system: LOX IMVI melanoma
# OVCAR-5 ovarian = test system: OVCAR-5 ovarian
# MDA-MB-435 = test system: MDA-MB-435
# HS 578T breast = test system: HS 578T breast
# K-562 leukemia = test system: K-562 leukemia
# MALME-3M melanoma = test system: MALME-3M melanoma
# NCI-H226 lung = test system: NCI-H226 lung
# SW-620 colon = test system: SW-620 colon
# NCI-H522 lung = test system: NCI-H522 lung
# A549 NSCLC = test system: A549 NSCLC
# CCRF-CEM leukemia = test system: CCRF-CEM leukemia
# RXF 393 renal = test system: RXF 393 renal
# SK-OV-3 ovarian = test system: SK-OV-3 ovarian
# TK-10 renal = test system: TK-10 renal
# HCT-15 colon = test system: HCT-15 colon
# MDA-MB-231 breast = test system: MDA-MB-231 breast
# SF-539 CNS = test system: SF-539 CNS
# SR leukemia = test system: SR leukemia
# SK-MEL-28 melanoma = test system: SK-MEL-28 melanoma
# 786-0 renal = test system: 786-0 renal
# OVCAR-4 ovarian = test system: OVCAR-4 ovarian
# NCI-H23 lung = test system: NCI-H23 lung
# ACHN renal = test system: ACHN renal
# MOLT-4 leukemia = test system: MOLT-4 leukemia
# KM12 colon = test system: KM12 colon
# UO-31 renal = test system: UO-31 renal
# SNB-75 CNS = test system: SNB-75 CNS
# HT29 colon = test system: HT29 colon
# M14 melanoma = test system: M14 melanoma
# HL-60(TB) leukemia = test system: HL-60(TB) leukemia
# HCT-116 colon = test system: HCT-116 colon
# SK-MEL-5 melanoma = test system: SK-MEL-5 melanoma
# HOP-92 NSCLC = test system: HOP-92 NSCLC
smiles,measurement,setting,value
CC(C)CCNCC(O)Cn1c2ccccc2c2ccccc21 (configuration not stated),GI50,SN12C renal,11.2 µM
same,TGI,SN12C renal,25.1 µM
same,GI50,NCI/ADR-RES ovarian,14.2 µM
same,TGI,NCI/ADR-RES ovarian,30.7 µM
same,GI50,SF-268 CNS,12.2 µM
same,TGI,SF-268 CNS,26.4 µM
same,GI50,COLO 205 colon,2 µM
same,TGI,COLO 205 colon,3.95 µM
same,GI50,U251 CNS,10.5 µM
same,TGI,U251 CNS,23.5 µM
same,GI50,RPMI-8226 leukemia,3.1 µM
same,TGI,RPMI-8226 leukemia,11.2 µM
same,GI50,DU-145 prostate,14.6 µM
same,TGI,DU-145 prostate,27.9 µM
same,GI50,CAKI-1 renal,14.3 µM
same,TGI,CAKI-1 renal,29.8 µM
same,GI50,A498 renal,9.52 µM
same,TGI,A498 renal,22.8 µM
same,GI50,T-47D breast,3.99 µM
same,TGI,T-47D breast,14.6 µM
same,GI50,UACC-257 melanoma,5 µM
same,TGI,UACC-257 melanoma,17.2 µM
same,GI50,OVCAR-8 ovarian,13.7 µM
same,TGI,OVCAR-8 ovarian,33.7 µM
same,GI50,NCI-H460 lung,3.64 µM
same,TGI,NCI-H460 lung,13.7 µM
same,GI50,BT-549 breast,16.5 µM
same,TGI,BT-549 breast,31.4 µM
same,GI50,HCC-2998 colon,2.06 µM
same,TGI,HCC-2998 colon,4.22 µM
same,GI50,HOP-62 NSCLC,15.4 µM
same,TGI,HOP-62 NSCLC,29.7 µM
same,GI50,UACC-62 melanoma,10.4 µM
same,TGI,UACC-62 melanoma,22.4 µM
same,GI50,IGROV1 ovarian,14 µM
same,TGI,IGROV1 ovarian,32.1 µM
same,GI50,OVCAR-3 ovarian,13.4 µM
same,TGI,OVCAR-3 ovarian,26.8 µM
same,GI50,SNB-19 CNS,13.8 µM
same,TGI,SNB-19 CNS,28.8 µM
same,GI50,MCF7 breast,2.72 µM
same,TGI,MCF7 breast,10.3 µM
same,GI50,PC-3 prostate,10.6 µM
same,TGI,PC-3 prostate,23 µM
same,GI50,SF-295 CNS,19.4 µM
same,TGI,SF-295 CNS,39.4 µM
same,GI50,LOX IMVI melanoma,5.6 µM
same,TGI,LOX IMVI melanoma,18.5 µM
same,GI50,OVCAR-5 ovarian,12.4 µM
same,TGI,OVCAR-5 ovarian,25.7 µM
same,GI50,MDA-MB-435,3.82 µM
same,TGI,MDA-MB-435,14.8 µM
same,GI50,HS 578T breast,13.8 µM
same,TGI,HS 578T breast,38.9 µM
same,GI50,K-562 leukemia,3.69 µM
same,TGI,K-562 leukemia,13.2 µM
same,GI50,MALME-3M melanoma,7.17 µM
same,TGI,MALME-3M melanoma,23 µM
same,GI50,NCI-H226 lung,15.7 µM
same,TGI,NCI-H226 lung,37.9 µM
same,GI50,SW-620 colon,10.4 µM
same,TGI,SW-620 colon,24 µM
same,GI50,NCI-H522 lung,13.6 µM
same,TGI,NCI-H522 lung,27.7 µM
same,GI50,A549 NSCLC,16.4 µM
same,TGI,A549 NSCLC,31.9 µM
same,GI50,CCRF-CEM leukemia,12.8 µM
same,TGI,CCRF-CEM leukemia,31.7 µM
same,GI50,RXF 393 renal,5.36 µM
same,TGI,RXF 393 renal,19.9 µM
same,GI50,SK-OV-3 ovarian,17.2 µM
same,TGI,SK-OV-3 ovarian,31.2 µM
same,GI50,TK-10 renal,14 µM
same,TGI,TK-10 renal,27.6 µM
same,GI50,HCT-15 colon,11.9 µM
same,TGI,HCT-15 colon,26.7 µM
same,GI50,MDA-MB-231 breast,3.51 µM
same,TGI,MDA-MB-231 breast,14.4 µM
same,GI50,SF-539 CNS,15.8 µM
same,TGI,SF-539 CNS,30.2 µM
same,GI50,SR leukemia,2.45 µM
same,TGI,SR leukemia,6.38 µM
same,GI50,SK-MEL-28 melanoma,4.42 µM
same,TGI,SK-MEL-28 melanoma,16.1 µM
same,GI50,786-0 renal,13.2 µM
same,TGI,786-0 renal,27.3 µM
same,GI50,OVCAR-4 ovarian,12.9 µM
same,TGI,OVCAR-4 ovarian,27.2 µM
same,GI50,NCI-H23 lung,16.4 µM
same,TGI,NCI-H23 lung,31.9 µM
same,GI50,ACHN renal,10.5 µM
same,TGI,ACHN renal,23.4 µM
same,GI50,MOLT-4 leukemia,10.2 µM
same,TGI,MOLT-4 leukemia,25.9 µM
same,GI50,KM12 colon,3.91 µM
same,TGI,KM12 colon,14.4 µM
same,GI50,UO-31 renal,9.21 µM
same,TGI,UO-31 renal,23.3 µM
same,GI50,SNB-75 CNS,6.54 µM
same,TGI,SNB-75 CNS,21 µM
same,GI50,HT29 colon,3.42 µM
same,TGI,HT29 colon,10.6 µM
same,GI50,M14 melanoma,2.73 µM
same,TGI,M14 melanoma,7.5 µM
same,GI50,HL-60(TB) leukemia,14.3 µM
same,TGI,HL-60(TB) leukemia,31.6 µM
same,GI50,HCT-116 colon,9.47 µM
same,TGI,HCT-116 colon,24.1 µM
same,GI50,SK-MEL-5 melanoma,2.27 µM
same,TGI,SK-MEL-5 melanoma,6.25 µM
same,GI50,HOP-92 NSCLC,2.71 µM
same,TGI,HOP-92 NSCLC,18.1 µM
